The values below come from patent publication US20240018124A1, “MODULATORS OF FPR1 AND METHODS OF USING THE SAME” (BIOFRONT LTD, priority 2021, published 2024).

pIC50: −log10 of the molar value.

Test [1] concerns the target T1, FPR1 (Homo sapiens (Human), UniProt P21462). Description: Reactive oxygen species (ROS) assay in human neutrophils stimulated with fMLP. Format: cell-based. Particulars: human neutrophils from whole blood; fMLP (500 nM); DCFH-DA fluorescence; read-out: Anti-ROS IC50. As for the experimental part: Reactive Oxygen Species (ROS) Assay
Human whole blood was collected, and ACK lysis buffer (ThermoFisher, A1049201) was added at 3 times the volume of the blood sample to lyse the red blood cells. The sample was incubated on ice for 15 minutes, and gently mixed twice during the incubation. 10 mL DPBS was then added, and the sample was centrifuged for 8 minutes. After removing the supernatant, remaining cells were resuspended in RPMI1640 medium containing 3% FBS and centrifuged again for 10 minutes. After removing the supernatant, cells were again resuspended in RPMI1640 medium containing 3% FBS. Neutrophil cell count was determined using FACS analysis by APC-labeled CD11b antibody (Biolegend, 101211) and FITC-labeled CD66b antibody (Biolegend, 305104). Neutrophils were then plated into 96-well plates (300,000/well). Plates were centrifuged and supernatant was removed. Cells were resuspended in 80 μL of compound solution (prepared in RPMI1640 medium containing 3% FBS), then incubated at room temperature for 15 minutes. 20 μL solution containing DCFH-DA (at the manufacturer's recommended concentration, Yeasen Biotechnology, 50101ES01) and fMLP (500 nM) was then added. Cells were incubated at 37° C. in 5% CO2 for 20 minutes away from light. After incubation, cells were placed on ice for 5 minutes, washed twice with 200 μL ice-cold DPBS, then resuspended in ice-cold DPBS at 100 µL/well. Fluorescence from each sample was measured at 485 nm excitation and 535 nm emission.
(§1) The effects of the compounds of the present disclosure on regulating the FPR1-mediated cell signaling were measured by monitoring the cellular cAMP level change and anti-reactive oxygen species formation in human neutrophils in the presence of an FPR1 agonist, respectively, as illustrated by the examples in Table 1.

Test [2] deals with T1, FPR1. The test can be described thus: Cyclic adenosine monophosphate (cAMP) assay, CHO-K1 cells stably overexpressing hFPR1. Type of test: cell-based. Particulars: 2.5 μM Forskolin and 0.25 nM WKYMVm (FPR1 agonist). As for the experimental part: Cyclic Adenosine Monophosphate (cAMP) Assay
CHO-K1 cells stably overexpressing hFPR1 were plated into 384-well cell culture plates (2,000/well/5 μL) in 1× Stimulation Buffer (LANCE Ultra cAMP Kit, Perkin Elmer, TRF0263). 1 μL compound solution (prepared in ddH2O containing 0.2% DMSO) was added to each well. Plates were centrifuged briefly, and cells were incubated at 37° C. in 5% CO2 for 10 minutes. 4 μL solution containing 2.5 μM Forskolin and 0.25 nM WKYMVm (an FPR1 agonist, GLPBIO, GC15140) was then added to each well. 5 μL of Eu-cAMP solution (diluted to manufacturer's recommended working concentration in Detection Buffer, LANCE Ultra cAMP Kit) and 5 μL of ULight-anti-cAMP solution (diluted in Detection Buffer, LANCE Ultra cAMP Kit) were added to each well. Plates were centrifuged briefly, and cells were incubated at room temperature for 1 hour. Fluorescence emission at 665 nm and 620 nm from the samples was measured by a Perkin Elmer Envision instrument.
as §1

T1 sequence (P21462 whole entry): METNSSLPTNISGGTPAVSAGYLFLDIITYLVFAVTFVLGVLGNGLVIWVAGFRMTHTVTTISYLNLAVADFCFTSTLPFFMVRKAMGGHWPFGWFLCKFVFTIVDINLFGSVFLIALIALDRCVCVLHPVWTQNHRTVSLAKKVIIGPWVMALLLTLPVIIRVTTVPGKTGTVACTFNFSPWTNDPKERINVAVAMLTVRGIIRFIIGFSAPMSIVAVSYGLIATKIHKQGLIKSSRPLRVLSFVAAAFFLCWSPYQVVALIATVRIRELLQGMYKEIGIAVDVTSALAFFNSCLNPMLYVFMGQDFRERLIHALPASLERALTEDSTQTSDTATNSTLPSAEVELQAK

In the case of `C[C@H](NC(=O)c1c(NS(=O)(=O)c2ccc(Cl)cc2)c(C2CCC3(CC2)OCCO3)nn1C)C(C)(C)C` [Compound 23, (S)-4-((4-chlorophenyl)sulfonamido)-N-(3,3-dimethylbutan-2-yl)-1-methyl-3-(1,4-dioxaspiro[4.5]decan-8-yl)-1H-pyrazole-5-carboxamide], the pIC50 in test [1] and in test [2] was 4.60 to 6.00 throughout.
On to `C[C@H](NC(=O)c1c(NS(=O)(=O)c2ccc(Cl)cc2)c(C2=CCC3(CC2)OCCO3)nn1C)C(C)(C)C` [Compound 24, (S)-4-((4-chlorophenyl)sulfonamido)-N-(3,3-dimethylbutan-2-yl)-1-methyl-3-(1,4-dioxaspiro[4.5]dec-7-en-8-yl)-1H-pyrazole-5-carboxamide], for which the pIC50 in test [1] and in test [2] was 4.60 to 6.00 each time.
Turning to `C[C@H](NC(=O)c1c(NS(=O)(=O)c2ccc(C#N)cc2)c(C2CCOCC2)nn1C)C(C)(C)C` [Compound 25, (S)-4-((4-cyanophenyl)sulfonamido)-N-(3,3-dimethylbutan-2-yl)-1-methyl-3-(tetrahydro-2H-pyran-4-yl)-1H-pyrazole-5-carboxamide], the pIC50 in test [1] and in test [2] was 6.00 to 7.00 in each case.
On to `C[C@H](NC(=O)c1c(NS(=O)(=O)c2ccc(C3CC3)cc2)c(-c2ccc(F)cc2)nn1C)C(C)(C)C` [Compound 26, (S)-4-((4-cyclopropylphenyl)sulfonamido)-N-(3,3-dimethylbutan-2-yl)-3-(4-fluorophenyl)-1-methyl-1H-pyrazole-5-carboxamide], for which the pIC50 in test [1] is 6.00 to 7.00; in test [2], 4.60 to 6.00.
For `COc1ccc(S(=O)(=O)Nc2c(-c3ccc(F)cc3)nn(C)c2C(=O)N[C@@H](C)C(C)(C)C)cc1` [Compound 27, (S)—N-(3,3-dimethylbutan-2-yl)-3-(4-fluorophenyl)-4-((4-methoxyphenyl)sulfonamido)-1-methyl-1H-pyrazole-5-carboxamide], the negative-log IC50 (pIC50) in test [1] and in test [2] was 6.00 to 7.00 each time.
`C[C@H](NC(=O)c1c(NS(=O)(=O)c2ccc(C#N)cc2F)c(-c2ccc(F)cc2)nn1C)C(C)(C)C` [Compound 28, (S)-4-((4-cyano-2-fluorophenyl)sulfonamido)-N-(3,3-dimethylbutan-2-yl)-3-(4-fluorophenyl)-1-methyl-1H-pyrazole-5-carboxamide]: the pIC50 in test [1] and in test [2] was 6.00 to 7.00 in each case.
Take `COCc1ccccc1-c1nn(C)c(C(=O)N[C@@H](C)C(C)(C)C)c1NS(=O)(=O)c1ccc(C)cc1` [Compound 33, (S)—N-(3,3-dimethylbutan-2-yl)-3-(2-(methoxymethyl)phenyl)-1-methyl-4-((4-methylphenyl)sulfonamido)-1H-pyrazole-5-carboxamide]: the pIC50 in test [1] and in test [2] was 6.00 to 7.00 in each case.
With `C[C@H](NC(=O)c1c(NS(=O)(=O)c2ccc(Cl)cc2)c(C2CCC(F)(F)CC2)nn1C)C(C)(C)C` [Compound 37, (S)-4-((4-chlorophenyl)sulfonamido)-3-(4,4-difluorocyclohexyl)-N-(3,3-dimethylbutan-2-yl)-1-methyl-1H-pyrazole-5-carboxamide], the pIC50 in test [1] and in test [2] was 6.00 to 7.00 in each case.
Take `C[C@H](NC(=O)c1c(NS(=O)(=O)c2ccc(Cl)cc2)c(-c2ccc(F)cc2)nn1C)C(C)(C)C` [Compound 38, (S)-4-((4-chlorophenyl)sulfonamido)-N-(3,3-dimethylbutan-2-yl)-3-(4-fluorophenyl)-1-methyl-1H-pyrazole-5-carboxamide]: the pIC50 in test [1] and in test [2] was 6.00 to 7.00 each time.
On to `C[C@H](NC(=O)c1c(NS(=O)(=O)c2ccc(Cl)cc2)c(-c2ccccc2C(F)F)nn1C)C(C)(C)C` [Compound 39, (S)-4-((4-chlorophenyl)sulfonamido)-3-(2-(difluoromethyl)phenyl)-N-(3,3-dimethylbutan-2-yl)-1-methyl-1H-pyrazole-5-carboxamide], for which the pIC50 in test [1] and in test [2] was 6.00 to 7.00 throughout.
`C[C@H](NC(=O)c1c(NS(=O)(=O)c2ccc(C#N)cc2)c(-c2ccc(F)cc2F)nn1C)C(C)(C)C` [Compound 41, (S)-4-((4-cyanophenyl)sulfonamido)-3-(2,4-difluorophenyl)-N-(3,3-dimethylbutan-2-yl)-1-methyl-1H-pyrazole-5-carboxamide]: the pIC50 in test [1] and in test [2] was 6.00 to 7.00 each time.
As for `COCc1ncccc1-c1nn(C)c(C(=O)N[C@@H](C)C(C)(C)C)c1NS(=O)(=O)c1ccc(C#N)cc1` [Compound 42, (S)-4-((4-cyanophenyl)sulfonamido)-N-(3,3-dimethylbutan-2-yl)-3-(2-(methoxymethyl)pyridin-3-yl)-1-methyl-1H-pyrazole-5-carboxamide], the pIC50 in test [1] and in test [2] was < 4.60 in each case.
With `C[C@H](NC(=O)c1c(NS(=O)(=O)c2ccc(C#N)cc2)c(C2=CCC(F)(F)CC2)nn1C)C(C)(C)C` [Compound 43, (S)-4-((4-cyanophenyl)sulfonamido)-3-(4,4-difluorocyclohex-1-en-1-yl)-N-(3,3-dimethylbutan-2-yl)-1-methyl-1H-pyrazole-5-carboxamide], the pIC50 in test [1] is 6.00 to 7.00; in test [2], 4.60 to 6.00.
For `C[C@H](NC(=O)c1c(NS(=O)(=O)c2ccc(C#N)cc2)c(C2CCC(F)(F)CC2)nn1C)C(C)(C)C` [Compound 44, (S)-4-((4-cyanophenyl)sulfonamido)-3-(4,4-difluorocyclohexyl)-N-(3,3-dimethylbutan-2-yl)-1-methyl-1H-pyrazole-5-carboxamide], the pIC50 in test [1] and in test [2] was 6.00 to 7.00 in each case.
